According to PMC8388125, “Kinetic and Structural Characterization of the Self-Labeling Protein Tags HaloTag7, SNAP-tag, and CLIP-tag” (Biochemistry, 2021):

Legend:
[1] = system: HOB (halo-based oligonucleotide binder, HT7 variant); experiment: HOB labeling kinetics via stopped flow (fluorescence anisotropy); format: biochemical, Rhodococcus sp.
Protocol: (§1) Labeling kinetics of HT7 with CA-TMR, CA-JF549, CA-CPY, CA-LIVE580, and CA-JF669 and labeling kinetics of HOB with CA-TMR were measured by recording fluorescence anisotropy changes over time using a BioLogic SFM-400 stopped-flow instrument (BioLogic Science Instruments, Claix, France) in a single-mixing configuration at 37 °C. HT7 protein and substrates in activity buffer were mixed in a 1:1 stoichiometry to reach a recordable speed for these fast reactions and to increase the information content of the traces. Concentrations were varied from 0.125 to 1 μM. The anisotropy of the free substrate was measured to obtain a baseline.
Kinetic stopped-flow data were preprocessed using a custom R script.[36],[37] Recorded pretrigger time points were removed, and time points were adjusted to start at time zero. Values from replicates were averaged. The anisotropy of the free dye was calculated by averaging anisotropy values of the baseline measurements. Preprocessed data were fitted to a kinetic model (eqs 5 and 6) described by differential eqs 7–10 using the DynaFit software.[38] The anisotropy of the free dye and the mixing delay of the stopped-flow machine were set as fixed offset and delay parameters in DynaFit. […] In the case of SNAP kinetics with BG-TMR, the substrate concentration was fitted by DynaFit to rule out quantification errors of the BG-quenched fluorophore. […]

HaloTag7 (HT7) [2] = target: T1, HaloTag7 (HT7) (Rhodococcus sp., UniProt P59336, A155T/A167V/A224E/C128F/C176G/D78G/E160K/E257K/G292T/H272N/K175M/K195N/L47V/L88M/N227D/P291S/S2A/S58T/T264A/V172T/Y273L/Y87F); experiment: HT7 labeling kinetics via stopped flow (fluorescence anisotropy); format: biochemical
T1 construct: made in house; host or cells: E. coli BL21(DE3)-pLysS
Protocol: as §1
Kinetic stopped-flow data were preprocessed using a custom R script.[36],[37] Recorded pretrigger time points were removed, and time points were adjusted to start at time zero. Values from replicates were averaged. The anisotropy of the free dye was calculated by averaging anisotropy values of the baseline measurements. Preprocessed data were fitted to a kinetic model (eqs 5 and 6) described by differential eqs 7–10 using the DynaFit software.[38] The anisotropy of the free dye and the mixing delay of the stopped-flow machine were set as fixed offset and delay parameters in DynaFit. It was assumed that the protein substrate complex and the reacted product are contributing equally to the anisotropy signal. […] Standard deviations (normal distribution verified) and confidence intervals of fitted parameters were estimated with the Monte Carlo method[39] with standard settings (N = 1000, 5% worst fits discarded). In the case of SNAP kinetics with BG-TMR, the substrate concentration was fitted by DynaFit to rule out quantification errors of the BG-quenched fluorophore. Accurate fitting of the concentration was ensured by including conditions in which protein is limiting and no maximum FP value was reached.

HT7^D106A [3] = target: T2, HT7^D106A (Rhodococcus sp., UniProt P59336, A155T/A167V/A224E/C128F/C176G/D106A/D78G/E160K/E257K/G292T/H272N/K175M/K195N/L47V/L88M/N227D/P291S/S2A/S58T/T264A/V172T/Y273L/Y87F); experiment: Affinity of HT7^D106A for CA substrates by fluorescence polarization; format: binding
T2 construct: made in house; host or cells: E. coli BL21(DE3)-pLysS
Protocol: Binding affinities of HT7^D106A or HOB^D106A for chloroalkane (CA) substrates were determined by fluorescence polarization (FP, eq 1) measurements using a microplate reader (Spark20M, Tecan Group AG, Männedorf, Switzerland). The fluorescent substrates (10 nM) were titrated against different protein concentrations (0–250 μM) in activity buffer supplemented with 0.5 g/L bovine serum albumin (BSA). Assays were performed in black low-volume nonbinding 384-well plates (Corning Inc., Corning, NY) with a final volume of 20 μL. Obtained FP values were averaged and fitted to a single-site binding model (eq 2) to estimate Kd values for each fluorescent substrate. The FP value of each dye fully reacted with the native HT7 was used to improve fitting of the upper plateau of the curves by adding an extra data point at a protein concentration of 0.1 M. [drawing 1] 1 where FP is the fluorescence polarization, I∥ is the fluorescence intensity parallel to the excitation light polarization, I⊥ is the fluorescence intensity perpendicular to the excitation light polarization, and G is the grating factor (G = I∥/I⊥). [drawing 2] 2 where FPmin is the fluorescence polarization of the free fluorophore (lower plateau), FPmax is the maximal fluorescence polarization of fully bound fluorophore (upper plateau), Kd is the dissociation constant, and [protein] is the protein concentration.
(§2) Free binding energies were calculated from Kd values according to eq 4: [drawing 4] 4 where ΔG is the free binding energy, R is the universal gas constant, T is the temperature, and Kd is the dissociation constant.

SNAP^C145A = target: T3, SNAP^C145A (Homo sapiens, UniProt P16455, A127T/A154D/C145A/C150Q/C62A/G131K/G132T/G153L/K125A/K32I/L33F/M134L/N157G/Q115S/Q116H/R128A/R135S/S151G/S152D/S159E); experiment: Affinity of SNAP^C145A for BG and CP fluorescent substrates by fluorescence polarization; format: binding; details: SNAP^C145A, fluorescence polarization, room temperature
T3 construct: made in house; host or cells: E. coli BL21(DE3)-pLysS
T3 sequence (P16455 1-182 K32I/L33F/C62A/Q115S/Q116H/K125A/A127T/R128A/G131K/G132T/M134L/R135S/C145A/C150Q/S151G/S152D/G153L/A154D/N157G/S159E limits assumed): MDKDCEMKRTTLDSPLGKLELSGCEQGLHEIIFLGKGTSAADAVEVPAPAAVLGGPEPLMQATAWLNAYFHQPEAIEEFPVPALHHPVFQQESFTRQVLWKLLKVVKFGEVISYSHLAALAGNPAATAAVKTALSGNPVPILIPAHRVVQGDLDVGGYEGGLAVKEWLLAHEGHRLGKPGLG
Protocol: Binding affinities of SNAP^C145A and SNAPf^C145A for BG-Alexa488, CP-Alexa488, BG-fluorescein, CP-fluorescein, BG-MAP555, BG-JF549, BG-TMR(6), BG-TMR(5), CP-TMR, BG-CPY(6), BG-CPY(5), CP-CPY, BG-SiR, CP-SiR, BG-JF646, BG-Atto565, BG-Atto590, BG-sulfo-Cy3, BG-Cy3, BG-sulfo-Cy5, and BG-Cy5 were determined by fluorescence polarization in a manner analogous to that for HT7 affinities for CA substrates described above with the following changes. Fluorescent substrates were titrated at a final concentration of 50 nM against protein concentrations ranging from 0 to 250 μM at room temperature using 0.1 g/L BSA and 1 mM DTT (SNAP-FP buffer). The FP value of each dye fully reacted with the native SNAP/SNAPf was used to improve fitting of the upper plateau of the curves by adding an extra data point at a protein concentration of 0.005 M.

HT7^D106A [4] = target: T2, HT7^D106A; experiment: Affinity of HT7 for methyl-amide fluorophores by fluorescence polarization; format: binding
Protocol: Binding affinities of HT7 for methyl-amide fluorophores were determined by fluorescence polarization in a manner analogous to that of CA substrates described above with the following changes. Fluorescent substrates were used at a final concentration of 50 nM, and measurements were performed at room temperature.
as §2

HT7^D106A [5] = target: T2, HT7^D106A; experiment: Affinity of HT7^D106A for CA-Ac via FP competition assay against CA-TMR; format: binding
Protocol: The binding affinity of HT7^D106A for CA-Ac was determined by a fluorescence polarization competition assay against CA-TMR. Therein, 5 μM protein and 50 nM CA-TMR were titrated against CA-Ac concentrations ranging from 80 μM to 10 mM in activity buffer supplemented with 0.5 g/L BSA. Assays were performed in low-volume nonbinding black 384-well plates (Corning Inc.) with a final volume of 20 μL using a microplate reader (Spark20M, Tecan). Obtained FP values were averaged and fitted to a four-parameter logistic curve (eq 3) to estimate the I50 value. The lower plateau was fixed to the measured FP value of the free dye to improve the fit. The dissociation constant of CA-Ac was calculated as described by Rossi and Taylor.[35] [drawing 3] 3 where FPmin is the fluorescence polarization of the free fluorophore (lower plateau), FPmax is the maximal fluorescence polarization of the fully bound fluorophore (upper plateau), I50 is the half-maximal effective concentration, and [ligand] is the ligand concentration.
as §2

HaloTag7 (HT7) [6] = target: T1, HaloTag7 (HT7); experiment: HT7 competitive labeling kinetics against CA-Alexa488; format: biochemical; details: HT7, nonfluorescent substrates, competition with CA-Alexa488, 37 °C
Protocol: Competitive kinetics were measured by recording FP over time using a microplate reader (Spark20M, Tecan). The final concentrations of CA-Alexa488 (50 nM) and HT7 protein (200 nM) remained constant with varying concentrations of nonfluorescent substrates (0–1 μM) in activity buffer supplemented with 0.5 g/L BSA. Assays were performed in black nonbinding flat bottom 96-well plates with a final reaction volume of 200 μL. Labeling reactions were started by adding the HT7 protein to wells containing CA-Alexa488 and nonfluorescent substrates using an electronic 96-channel pipettor (Integra Bioscience Corp., Hudson, NH). The FP of free CA-Alexa488 was measured to obtain a baseline.
Data were fitted to a simplified kinetic competition model (eqs 19 and 20) described by differential eqs 21–25 using DynaFit. The dead time of the measurements and baseline FP value were put in as fixed parameters. Standard deviations (normal distribution verified) and confidence intervals of fitted parameters were estimated with the Monte Carlo method with standard settings (N = 1000, 5% worst fits discarded). [drawing 19] 19 [drawing 20] 20 where P is the SLP protein, S is the fluorescent SLP substrate, I is the nonfluorescent SLP substrate (inhibitor), PS is the protein–fluorescent substrate conjugate, and PI is the protein–nonfluorescent substrate conjugate. [drawing 21] 21 [drawing 22] 22 [drawing 23] 23 [drawing 24] 24 [drawing 25] 25

T1 sequence (P59336 other isoform, or with tags, fused parts or gaps with the stated changes): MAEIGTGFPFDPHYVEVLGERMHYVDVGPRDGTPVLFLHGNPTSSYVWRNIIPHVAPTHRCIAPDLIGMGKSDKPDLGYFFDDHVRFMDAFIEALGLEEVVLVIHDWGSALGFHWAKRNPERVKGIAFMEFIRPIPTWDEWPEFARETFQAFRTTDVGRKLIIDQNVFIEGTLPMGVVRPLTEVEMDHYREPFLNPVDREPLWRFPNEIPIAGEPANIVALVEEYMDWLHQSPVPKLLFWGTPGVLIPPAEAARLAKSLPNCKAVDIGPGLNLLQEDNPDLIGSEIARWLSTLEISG
T2 sequence (P59336 other isoform, or with tags, fused parts or gaps with the stated changes): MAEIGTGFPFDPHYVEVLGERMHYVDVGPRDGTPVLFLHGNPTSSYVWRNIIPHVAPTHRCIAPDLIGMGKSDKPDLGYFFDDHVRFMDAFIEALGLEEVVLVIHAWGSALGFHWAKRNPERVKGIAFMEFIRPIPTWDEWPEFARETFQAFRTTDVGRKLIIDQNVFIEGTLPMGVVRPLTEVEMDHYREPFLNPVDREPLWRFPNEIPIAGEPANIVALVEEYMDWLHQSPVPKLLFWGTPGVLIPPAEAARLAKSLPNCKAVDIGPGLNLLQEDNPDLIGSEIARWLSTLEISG

CN(C)c1ccc2c(-c3cc(C(=O)NCCOCCOCCCCCCCl)ccc3C(=O)[O-])c3ccc(=[N+](C)C)cc-3oc2c1 [CA-TMR, chloroalkane-PEG-tetramethylrhodamine]
fold decrease in kapp of HOB compared to HT7 ([1]; HOB vs HT7): 2.09 ± 0.01 fold | k2 (± S.D.) ([1]; HOB, stopped flow, model 2): 5.05 (± 0.13) s-1 | Kd (HaloTag7 (HT7) [2]): 0.327 µM | k2 (± S.D.) (HaloTag7 (HT7) [2]; HT7, stopped flow, model 2): 8.06 (± 0.29) s-1 | Kd (HT7^D106A [3]): 6.24 µM | fold decrease in affinity of the 5-substituted compared to the 6-substituted rhodamine substrate (HT7^D106A [3]; HT7^D106A): 6.31 fold | free binding energy (ΔG) (HT7^D106A [3]; HT7^D106A, calculated from Kd): 30.9 kJ mol^–1

CNC(=O)c1ccc(C(=O)[O-])c(-c2c3ccc(=[N+](C)C)cc-3oc3cc(N(C)C)ccc23)c1 [meAm-TMR]
Kd^C145A (SNAP^C145A): no affinity could be measured | free binding energy (ΔG) (HT7^D106A [4]; calculated from Kd): −16.7 kJ mol^–1 | Kd (HT7^D106A [4]; fluorescence polarization, room temperature): 1510 µM

CC(=O)NCCOCCOCCCCCCCl [CA-Ac, acetylated chloroalkane]
Kd (HT7^D106A [5]): 2620 µM | free binding energy (ΔG) (HT7^D106A [5]; HT7^D106A, calculated from Kd): −15.3 kJ mol^–1 | kapp (value ± standard deviation) (HaloTag7 (HT7) [6]): (1.53 ± 0.02) × 10^3 M^–1 s^–1
